The target in the experiment is JNK3 (Homo sapiens, UniProt P53779). Nature of the experiment: JNK3 SPA assay (phosphorylation of GST-c-Jun). Format: biochemical. The conditions noted are these: 3.33 μM ATP, GST-c-Jun substrate, read-out: IC50 against JNK3. As to the method: JNK1, JNK2, JNK3—SPA Assay
JNK3, sequence (P53779 whole entry, species assumed): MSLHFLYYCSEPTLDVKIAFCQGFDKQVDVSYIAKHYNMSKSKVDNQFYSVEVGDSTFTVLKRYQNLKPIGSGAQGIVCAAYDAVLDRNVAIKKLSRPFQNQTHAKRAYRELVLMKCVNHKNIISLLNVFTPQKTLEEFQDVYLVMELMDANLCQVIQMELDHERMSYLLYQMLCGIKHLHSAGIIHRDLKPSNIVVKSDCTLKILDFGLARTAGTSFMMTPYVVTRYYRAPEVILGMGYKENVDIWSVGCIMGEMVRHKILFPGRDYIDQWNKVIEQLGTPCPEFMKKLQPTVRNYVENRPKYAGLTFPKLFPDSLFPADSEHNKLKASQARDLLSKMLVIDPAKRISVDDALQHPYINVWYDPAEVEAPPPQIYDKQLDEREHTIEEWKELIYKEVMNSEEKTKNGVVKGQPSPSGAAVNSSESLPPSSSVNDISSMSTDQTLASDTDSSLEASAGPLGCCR
JNK1, JNK2, JNK3—SPA Assay • 1. Compound is dissolved in DMSO to a convenient concentration and this is diluted in 10% DMSO to a five times concentrate of the desired starting concentration (frequently 1:100). • 2. 10 μl of 500 mM EDTA is added to alternative wells of the Opti-plate row, which will receive kinase reaction plus DMSO. This creates the negative control. • 3. For the JNK2 and JNK3 assay, compounds are prepared in six 2-fold dilutions with water and each concentration is tested in duplicate. For the JNK1 assay compounds are prepared in four 5-fold dilutions with water which are tested in triplicate. Controls are treated identically. • 4. 20 μl per well of each compound concentration is transferred to an Opti-plate, in duplicate. • 5. 30 μl (JNK2/3 SPA) or 50 μl (JNK1 SPA) of substrate solution (25 mM HEPES pH 7.5, 10 mM magnesium acetate with 3.33 μM ATP (JNK2/3) or 2 μM ATP (JNK1), approximately 7.5 kBq [γ-^33P] ATP, GST-c-Jun, in water) is added to each well. • 6. 50 μl (JNK2/3 SPA) or 30 μl (JNK1 SPA) of kinase solution (JNK in 25 mM HEPES pH 7.5, 10 mM Mg Acetate) is added to each well.
• 7. The plate is incubated for 30 minutes at room temperature. • 8. 100 μl of bead/stop solution is added to each well (5 mg/ml glutathione-PVT-SPA beads, 40 mM ATP in PBS). • 9. Plates are sealed and incubated for 30 minutes at room temperature, centrifuged for 10 minutes at 2500 g and counted. • 10. The IC50 values are calculated as the concentration of the compound being tested at which the phosphorylation of c-Jun is decreased to 50% of the control value.
The IC50 is the concentration needed to halve the response being measured. As to `O=C(c1nc(-c2c[nH]c3ncc([C@H]4CC[C@H](N5CCOCC5)CC4)cc23)cs1)N1CCCCC1` [Compound I-33, (4-(5-((1r,4r)-4-morpholinocyclohexyl)-1H-pyrrolo[2,3-b]pyridin-3-yl)thiazol-2-yl)(piperidin-1-yl)methanone], the IC50 amounted to 198 nM.
Next, `O=C(c1nc(-c2c[nH]c3ncc([C@H]4CC[C@H](N5CCOCC5)CC4)cc23)cs1)N1CCOCC1` [Compound I-34, morpholino(4-(5-((1r,4r)-4-morpholinocyclohexyl)-1H-pyrrolo[2,3-b]pyridin-3-yl)thiazol-2-yl)methanone]: 162 nM; `c1ncc(-c2c[nH]c3ncc(C4CCCCC4)cc23)s1` [Compound I-48, 5-(5-cyclohexyl-1H-pyrrolo[2,3-b]pyridin-3-yl)thiazole]: 580 nM.
Next, `c1nc(-c2c[nH]c3ncc(C4CCCCC4)cc23)cs1` [Compound I-49, 4-(5-cyclohexyl-1H-pyrrolo[2,3-b]pyridin-3-yl)thiazole]: 89 nM; `COc1nc(-c2c[nH]c3ncc(C4CCCCC4)cc23)cs1` [Compound I-50, 4-(5-cyclohexyl-1H-pyrrolo[2,3-b]pyridin-3-yl)-2-methoxythiazole]: 891 nM.
Take `Cc1csc(-c2c[nH]c3ncc(C4CCCCC4)cc23)n1` [Compound I-51, 2-(5-cyclohexyl-1H-pyrrolo[2,3-b]pyridin-3-yl)-4-methylthiazole]: the IC50 is 933 nM.
Next, `Cc1nc(-c2c[nH]c3ncc([C@H]4CC[C@@H](N5CCOCC5)CC4)cc23)cs1` [Compound I-56, 4-((1s,4s)-4-(3-(2-methylthiazol-4-yl)-1H-pyrrolo[2,3-b]pyridin-5-yl)cyclohexyl)morpholine]: more than 2000 nM; `Cc1nc(-c2c[nH]c3ncc(C4CCCCC4)cc23)cs1` [Compound I-58, 4-(5-cyclohexyl-1H-pyrrolo[2,3-b]pyridin-3-yl)-2-methylthiazole]: more than 2000 nM.
As to `c1nc(-c2c[nH]c3ncc([C@H]4CC[C@H](N5CCOCC5)CC4)cc23)cs1` [Compound I-59, 4-((1r,4r)-4-(3-(thiazol-4-yl)-1H-pyrrolo[2,3-b]pyridin-5-yl)cyclohexyl)morpholine], the half-inhibitory concentration (IC50) turned out to be 813 nM.
As for `c1ncc(-c2c[nH]c3ncc([C@H]4CC[C@H](N5CCOCC5)CC4)cc23)s1` [Compound I-60, 4-((1r,4r)-4-(3-(thiazol-5-yl)-1H-pyrrolo[2,3-b]pyridin-5-yl)cyclohexyl)morpholine], the figure is 110 nM; as for `Cc1csc(-c2c[nH]c3ncc([C@H]4CC[C@H](N5CCOCC5)CC4)cc23)n1` [Compound I-61, 4-((1r,4r)-4-(3-(4-methylthiazol-2-yl)-1H-pyrrolo[2,3-b]pyridin-5-yl)cyclohexyl)morpholine], 575 nM.
As for `Cc1cnc(-c2c[nH]c3ncc([C@H]4CC[C@H](N5CCOCC5)CC4)cc23)s1` [Compound I-62, 4-((1r,4r)-4-(3-(5-methylthiazol-2-yl)-1H-pyrrolo[2,3-b]pyridin-5-yl)cyclohexyl)morpholine], the figure is 871 nM; as for `CCOc1nc(-c2c[nH]c3ncc([C@H]4CC[C@H](N5CCOCC5)CC4)cc23)cs1` [Compound I-63, 4-((1r,4r)-4-(3-(2-ethoxythiazol-4-yl)-1H-pyrrolo[2,3-b]pyridin-5-yl)cyclohexyl)morpholine], 302 nM; as for `FC(F)(F)c1csc(-c2c[nH]c3ncc([C@H]4CC[C@H](N5CCOCC5)CC4)cc23)n1` [Compound I-69, 4-((1r,4r)-4-(3-(4-(trifluoromethyl)thiazol-2-yl)-1H-pyrrolo[2,3-b]pyridin-5-yl)cyclohexyl)morpholine], 447 nM.
Take `FC(F)(F)c1csc(-c2c[nH]c3ncc([C@H]4CC[C@@H](N5CCOCC5)CC4)cc23)n1` [Compound I-70, 4-((1s,4s)-4-(3-(4-(trifluoromethyl)thiazol-2-yl)-1H-pyrrolo[2,3-b]pyridin-5-yl)cyclohexyl)morpholine]: the IC50 was found to be 1100 nM.
As for `Cc1nc(-c2c[nH]c3ncc([C@H]4CC[C@H](N5CCCC5)CC4)cc23)cs1` [Compound I-74, 2-methyl-4-(5-((1r,4r)-4-(pyrrolidin-1-yl)cyclohexyl)-1H-pyrrolo[2,3-b]pyridin-3-yl)thiazole], the figure is 3310 nM.
With `Cc1nc(-c2c[nH]c3ncc([C@H]4CC[C@H](N5CCCOCC5)CC4)cc23)cs1` [Compound I-75, 4-((1r,4r)-4-(3-(2-methylthiazol-4-yl)-1H-pyrrolo[2,3-b]pyridin-5-yl)cyclohexyl)-1,4-oxazepane], the IC50 was more than 1000 nM.
In the case of `Cc1nc(-c2c[nH]c3ncc([C@H]4CC[C@@H](N5CCCOCC5)CC4)cc23)cs1` [Compound I-76, 4-((1s,4s)-4-(3-(2-methylthiazol-4-yl)-1H-pyrrolo[2,3-b]pyridin-5-yl)cyclohexyl)-1,4-oxazepane], the IC50 is more than 1000 nM.
As for `CN1CCC(c2csc(-c3c[nH]c4ncc([C@H]5CC[C@H](N6CCOCC6)CC5)cc34)n2)CC1` [Compound I-78, 4-((1r,4r)-4-(3-(4-(1-methylpiperidin-4-yl)thiazol-2-yl)-1H-pyrrolo[2,3-b]pyridin-5-yl)cyclohexyl)morpholine], the IC50 was found to be 295 nM.
As for `CN1CCC(c2csc(-c3c[nH]c4ncc([C@H]5CC[C@@H](N6CCOCC6)CC5)cc34)n2)CC1` [Compound I-79, 4-((1s,4s)-4-(3-(4-(1-methylpiperidin-4-yl)thiazol-2-yl)-1H-pyrrolo[2,3-b]pyridin-5-yl)cyclohexyl)morpholine], the figure is 309 nM.
As for `FC(F)(F)c1csc(-c2c[nH]c3ncc([C@H]4CC[C@H](N5CCCOCC5)CC4)cc23)n1` [Compound I-80, 4-((1r,4r)-4-(3-(4-(trifluoromethyl)thiazol-2-yl)-1H-pyrrolo[2,3-b]pyridin-5-yl)cyclohexyl)-1,4-oxazepane], the figure is 513 nM; as for `CN1CCN([C@H]2CC[C@H](c3cnc4[nH]cc(-c5nc(C(F)(F)F)cs5)c4c3)CC2)CC1` [Compound I-82, 2-(5-((1r,4r)-4-(4-methylpiperazin-1-yl)cyclohexyl)-1H-pyrrolo[2,3-b]pyridin-3-yl)-4-(trifluoromethyl)thiazole], 269 nM; as for `CN1CCN([C@H]2CC[C@@H](c3cnc4[nH]cc(-c5nc(C(F)(F)F)cs5)c4c3)CC2)CC1` [Compound I-83, 2-(5-((1s,4s)-4-(4-methylpiperazin-1-yl)cyclohexyl)-1H-pyrrolo[2,3-b]pyridin-3-yl)-4-(trifluoromethyl)thiazole], 603 nM.
For `FC(F)(F)c1csc(-c2c[nH]c3ncc([C@H]4CC[C@H](N5CCCC5)CC4)cc23)n1` [Compound I-84, 2-(5-((1r,4r)-4-(pyrrolidin-1-yl)cyclohexyl)-1H-pyrrolo[2,3-b]pyridin-3-yl)-4-(trifluoromethyl)thiazole], the IC50 worked out at 692 nM.
In the case of `FC(F)(F)c1csc(-c2c[nH]c3ncc([C@H]4CC[C@@H](N5CCCC5)CC4)cc23)n1` [Compound I-85, 2-(5-((1s,4s)-4-(pyrrolidin-1-yl)cyclohexyl)-1H-pyrrolo[2,3-b]pyridin-3-yl)-4-(trifluoromethyl)thiazole], the IC50 stood at 1820 nM.
Next, `c1csc(-c2c[nH]c3ncc([C@H]4CC[C@H](N5CCOCC5)CC4)cc23)n1` [Compound I-89, 4-((1r,4r)-4-(3-(thiazol-2-yl)-1H-pyrrolo[2,3-b]pyridin-5-yl)cyclohexyl)morpholine]: 575 nM; `c1csc(-c2c[nH]c3ncc([C@H]4CC[C@@H](N5CCOCC5)CC4)cc23)n1` [Compound I-90, 4-((1s,4s)-4-(3-(thiazol-2-yl)-1H-pyrrolo[2,3-b]pyridin-5-yl)cyclohexyl)morpholine]: 1320 nM; `Cc1nc(-c2c[nH]c3ncc([C@H]4CC[C@@H](N5CCN(C)CC5)CC4)cc23)cs1` [Compound I-92, 2-methyl-4-(5-((1s,4s)-4-(4-methylpiperazin-1-yl)cyclohexyl)-1H-pyrrolo[2,3-b]pyridin-3-yl)thiazole]: more than 1000 nM.
Turning to `CN1CCC(c2nc(-c3c[nH]c4ncc([C@H]5CC[C@H](N6CCOCC6)CC5)cc34)cs2)CC1` [Compound I-94, 4-((1r,4r)-4-(3-(2-(1-methylpiperidin-4-yl)thiazol-4-yl)-1H-pyrrolo[2,3-b]pyridin-5-yl)cyclohexyl)morpholine], the IC50 turned out to be 692 nM.
With `CN1CCC(c2nc(-c3c[nH]c4ncc([C@H]5CC[C@H](N6CCN(C)CC6)CC5)cc34)cs2)CC1` [Compound I-96, 4-(5-((1r,4r)-4-(4-methylpiperazin-1-yl)cyclohexyl)-1H-pyrrolo[2,3-b]pyridin-3-yl)-2-(1-methylpiperidin-4-yl)thiazole], the IC50 was found to be 229 nM.
Next, `CN1CCC(c2nc(-c3c[nH]c4ncc([C@H]5CC[C@H](N6CCCC6)CC5)cc34)cs2)CC1` [Compound I-98, 2-(1-methylpiperidin-4-yl)-4-(5-((1r,4r)-4-(pyrrolidin-1-yl)cyclohexyl)-1H-pyrrolo[2,3-b]pyridin-3-yl)thiazole]: 794 nM.

For the origin of these results see patent publication US7951802B2, “Use of 7-azaindoles in the inhibition of c-Jun N-terminal kinase” (Eisai R&D Management Co., Ltd., priority 2007, dated 2011).
